Literature values as cited in patent US11559485B2 (NANOCOPOEIA, LLC, priority 2020, dated 2023).
Structures can show the parent of a compound that is named as a salt.

Conditions: low/moderate aqueous solubility and low permeability

In the case of `Cc1cn(-c2cc(NC(=O)c3ccc(C)c(Nc4nccc(-c5cccnc5)n4)c3)cc(C(F)(F)F)c2)cn1` [Nilotinib monohydrochloride monohydrate], the BCS class is given as “Class IV”.
